In US20250009783A1, “SULFONATED HYALURONIC ACID COMPOUND, PREPARATION METHOD THEREFOR AND APPLICATION THEREOF” (UNIVERSITY OF MACAU, priority 2021, published 2025):

System: CAGA-TGF-β activity reporter cells
Assay: Test using TGF-β activity reporter cell (luciferase test)
Type: cell-based
Conditions: added alone: TGF-β 50 ng/ml, pro-TGF-β1 200 ng/ml, overnight, FIG. 6
Procedure: Method: CAGA-TGF-β activity reporter cells were plated (12-well plate) until the confluence reached 65%. Samples and reagents were added to different wells, respectively. The grouping and concentration were as follows. Group 1:2 ml of TGF-β (50 ng/ml); Group 2:2 ml of pro-TGF-β1 (200 ng/ml); Group 3:2 ml of LLC (200 ng/ml)+S-HA-9 (20 ug/ml); Group 4:2 ml of LLC (200 ng/ml)+PBS (1×); Group 5:2 ml of LLC (200 ng/ml)+S-HA-PBA-1 (20 ug/ml), the cells were stimulated overnight, the samples were collected, and cell lysate was obtained for luciferase test.

Substance | production of active TGF-β (reporter control groups)
TGF-β: transforming growth factor-β, control group 1 of the reporter cell test (50 ng/ml) | stimulated the production of active TGF-β
proTGF-β: pro-TGF-β1, control group 2 of the reporter cell test (200 ng/ml) | stimulated the production of a very small amount of active TGF-β
